The values that follow come from article PMC5698418 (Nature Communications, 2017).

Experiment [1] has as its system BDNF-induced nuclear Arc expression in primary cortical neurons. Description: Chemogenomic screen: high-content image-based assay of BDNF-induced nuclear Arc expression (96-well). Format: cell-based, mouse. In a few lines:
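DIV13 mouse primary cortical neurons (30,000 cells/well) are treated with compound at 16.7 µM and BDNF, in three biological replicates. Arc and acetyl-H3K9 are immunostained and imaged at ×40, and nuclear Arc signal is quantified automatically using acetyl-H3K9 as the nuclear mask.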

Another experiment has as its system GluA2 mRNA. Description: GluA2 mRNA by RT-qPCR in cortical neurons. Format: cell-based, mouse. Particulars: BDNF plus AK-7 16.7 µM vs BDNF plus vehicle, 6 h. As to the method:
After experimental treatment, total RNA was isolated from primary cortical neuron cultures using the TRIzol method (Invitrogen). The concentration of total RNA was measured using a NanoDrop 1000 spectrophotometer (Thermo Fisher Scientific, Rockford, IL) and first-strand complementary DNA (cDNA) was synthesized using the iScript cDNA Synthesis Kit (Bio-Rad, Hercules, CA). Real-time PCRs were performed using gene-specific primers and monitored by quantification of SYBR Green I fluorescence using a Bio-Rad CFX96 Real-Time Detection System. Expression was normalized against Gapdh expression. The relative quantification from at least three biological replicates was performed using the comparative cycle threshold (∆∆CT) method.
Primers for real-time reverse transcription PCR experiments were: Arc, 5′-[…]-3′ (forward) and 5′-[…]-3′ (reverse); Map2, 5′-[…]-3′ (forward) and 5′-[…]-3′ (reverse); GluA1, 5′-[…]-3′ (forward) and 5′-[…]-3′ (reverse); GluA2, 5′-[…]-3′ (forward) and 5′-[…]-3′ (reverse); Gapdh, 5′-[…]-3′ (forward) and 5′-[…]-3′ (reverse).
Supplementary Fig. 6. […] Bars represent mean fold-change and error bars indicate range from five biological replicates.

Another experiment addresses T1, HDAC2 (Homo sapiens, UniProt Q92769).
T1 construct: purchased BPS Bioscience (San Diego, CA), contract assay service
The experiment can be described thus: Biochemical HDAC assay (BPS Bioscience), HDAC2. As to conditions: 25 µM.

For a further experiment, the target named is T2, HDAC8 (Homo sapiens, UniProt Q9BY41).
T2 construct: purchased BPS Bioscience (San Diego, CA), contract assay service
The experiment can be described thus: Biochemical HDAC assay (BPS Bioscience), HDAC8. Particulars: 25 µM.

The subject of experiment [2] is Arc puncta in dendrites of primary cortical neurons. Description: Arc puncta along Map2-labeled dendrites (immunocytochemistry). Format: cell-based, mouse. Particulars: 16.7 µM with BDNF, vs untreated and BDNF alone; for BDNF: BDNF alone vs untreated. The source says:
Chemical structure of each compound is presented on top. b Graphs show mean (n = 5) Arc/β-actin ratio (±SEM) for cells treated as in a. […] Tukey’s HSD post hoc test, *p < 0.05; **p < 0.01, ***p < 0.005; ****p < 0.0001. […] Representative captures of DIV14 mouse primary cortical neurons from each experimental condition co-immunostained for Arc (red fluorophore) and Map2 (green fluorophore). White arrowheads show examples of discrete Arc puncta. […] Tukey’s HSD post hoc test, *p < 0.05; ***p < 0.005; ****p < 0.0001
Indirect immunofluorescence detection of antigens was carried out using cortical neurons cultured on poly-L-lysine/laminin-coated coverslips in 24-well plates at a density of 0.1 × 10^7 per well. After experimental treatment, cells were washed twice with PBS and fixed for 30 min at room temperature with 4% paraformaldehyde in PBS. After fixation, cells were washed twice with PBS, permeabilized with PBST (PBS + 0.25% Triton X-100) for 20 min, blocked in blocking solution (PBS + 5% normal goat serum) for another 30 min, and finally incubated overnight at 4 °C with the first primary antibody in blocking solution. The next day, coverslips were extensively washed with PBS and incubated for 2 h at room temperature in the appropriate fluorophore-conjugated secondary antibody solution (Alexa 488- or Alexa 594-conjugated secondary antibody (Molecular Probes, Invitrogen) in blocking solution). After washing with PBS, the coverslips were incubated again overnight in primary antibody solution for the second antigen, and the procedure for conjugation of the fluorophore-conjugated secondary antibody was repeated as above. Finally, cell nuclei were counterstained with 4′,6-diamidino-2-phenylindole (DAPI), and coverslips were mounted on glass slides with ProLong Antifade reagent (Invitrogen).
(§1) Quantification of surface GluA1 puncta was performed according to the following strategy. First, overlapping digital images of GluA1 and Map2 immunostainings were collected using a Zeiss AxioObserver Z1 inverted microscope and ×63 oil immersion objective. Second, thresholding and segmentation based on the Map2 images was used to remove GluA1 signals outside of dendritic processes. Importantly, the same background/foreground cutoff threshold was used for images of all experimental conditions. Third, the length of dendrites for each image set was measured and recorded. Finally, distinct GluA1 foreground objects along dendrites >5 pixels were counted using the particle analysis tool in ImageJ and presented as the average number of GluA1 puncta per µm of dendrite length for each experimental condition.

For another experiment, the system named is surface GluA1. Description: Surface AMPAR (GluA1) imaging along dendrites. Format: cell-based, mouse. As to conditions: 16.7 µM, 6 h with BDNF, vs untreated and BDNF alone; for BDNF: BDNF alone vs baseline. Here is the method:
Our procedure to label surface AMPARs containing the GluA1 subunit was adapted from two reports[14],[61]. Precisely, DIV14 primary cortical neurons cultured on coverslips were rinsed once with room temperature PBS^MC (PBS containing 0.5 mM CaCl2, 1 mM MgCl2, and 4% sucrose). Live cells were then incubated for 30 min at room temperature with GluA1 primary antibody solution (PBS^MC with antibody against the extracellular N-terminus of GluA1 (EMD Millipore Corp, clone RH95, 5.0 µg ml^−1)). Next, cells were rinsed twice with ice-cold PBS^MC followed by fixation with 4% paraformaldehyde + 4% sucrose solution for 15 min at room temperature. After fixation, neurons were washed with regular PBS and then incubated overnight with Map2 primary antibody solution (PBS with 0.125% Triton X-100, 5% normal goat serum, and anti-Map2 antibody) to label dendrites. Next day, coverslips were washed with PBS, incubated with appropriate secondary antibodies for 1 h at room temperature, and finally mounted on glass slides with ProLong Antifade reagent (Invitrogen).
as §1

T2 sequence (Q9BY41 whole entry): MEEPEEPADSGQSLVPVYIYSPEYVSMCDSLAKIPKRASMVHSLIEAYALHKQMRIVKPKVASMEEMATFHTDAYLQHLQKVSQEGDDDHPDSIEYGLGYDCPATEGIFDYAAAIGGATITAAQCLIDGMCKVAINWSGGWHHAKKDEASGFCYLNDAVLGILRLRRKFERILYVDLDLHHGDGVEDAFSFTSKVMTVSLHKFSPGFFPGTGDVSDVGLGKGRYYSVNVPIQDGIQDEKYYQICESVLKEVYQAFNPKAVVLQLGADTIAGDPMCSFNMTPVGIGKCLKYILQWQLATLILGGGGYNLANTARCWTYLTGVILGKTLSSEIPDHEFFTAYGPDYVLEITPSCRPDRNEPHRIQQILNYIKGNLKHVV
T1 sequence (Q92769 whole entry): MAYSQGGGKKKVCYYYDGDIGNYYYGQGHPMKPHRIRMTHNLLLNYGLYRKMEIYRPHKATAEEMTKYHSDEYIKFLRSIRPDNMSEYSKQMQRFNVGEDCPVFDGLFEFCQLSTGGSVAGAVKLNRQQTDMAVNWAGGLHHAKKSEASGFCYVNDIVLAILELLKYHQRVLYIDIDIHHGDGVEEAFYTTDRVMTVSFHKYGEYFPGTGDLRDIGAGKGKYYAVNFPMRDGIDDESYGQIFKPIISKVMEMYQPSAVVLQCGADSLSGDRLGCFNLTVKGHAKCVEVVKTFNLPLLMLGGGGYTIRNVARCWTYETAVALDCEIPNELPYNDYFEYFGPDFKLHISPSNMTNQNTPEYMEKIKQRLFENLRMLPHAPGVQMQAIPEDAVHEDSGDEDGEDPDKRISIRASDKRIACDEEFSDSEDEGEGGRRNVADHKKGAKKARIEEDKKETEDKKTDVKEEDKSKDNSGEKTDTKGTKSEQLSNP

In the case of `O=C(Nc1cccc(Br)c1)c1cccc(S(=O)(=O)N2CCCCCC2)c1` [AK-7], the “rank among potentiators of BDNF-induced nuclear Arc expression in screen” value in experiment [1] (16.7 µM, three biological replicates) was “first”. Further, in experiment [1] (chemogenomic (SMART) screen, BDNF-induced nuclear Arc expression, primary cortical neurons, BDNF control 19.5), the “Percentage of cell with nuclear Arc immunostaining above 2σ threshold” value stood at 61.6%. For the same molecule, in experiment [1] (nuclear Arc-positive cells relative to DMSO + BDNF control, negative values = decrease), the “Fold-change — Normalized to DMSO control (BDNF)” value is 3.2 fold. Further, the “GluA2 mRNA expression” value in the experiment on GluA2 mRNA is listed as “does not affect”. Moreover, the “inhibitory activity toward HDAC2” value against HDAC2 is listed as “failed to show any inhibitory activity”. Moreover, the “inhibitory activity toward HDAC8” value at HDAC8 is reported as “failed to show any inhibitory activity”. Also, the “number of Arc puncta in dendritic projections” value in experiment [2] is given as “significantly greater number of Arc puncta”. In addition, in the experiment on surface GluA1, the “surface GluA1 puncta per dendrite µm” value is listed as “significant decrease in surface GluA1 levels”.
